# Measurements as given in paper PMC9510826, “Catalytic promiscuity of O-methyltransferases from Corydalis yanhusuo leading to the structural diversity of benzylisoquinoline alkaloids” (Horticulture Research, 2022).
# Biological target: T1, CyOMT2 (Corydalis yanhusuo, UniProt Z9M545XIG0, L253C)
# T1 sequence (Z9M545XIG0 1-349 L253C): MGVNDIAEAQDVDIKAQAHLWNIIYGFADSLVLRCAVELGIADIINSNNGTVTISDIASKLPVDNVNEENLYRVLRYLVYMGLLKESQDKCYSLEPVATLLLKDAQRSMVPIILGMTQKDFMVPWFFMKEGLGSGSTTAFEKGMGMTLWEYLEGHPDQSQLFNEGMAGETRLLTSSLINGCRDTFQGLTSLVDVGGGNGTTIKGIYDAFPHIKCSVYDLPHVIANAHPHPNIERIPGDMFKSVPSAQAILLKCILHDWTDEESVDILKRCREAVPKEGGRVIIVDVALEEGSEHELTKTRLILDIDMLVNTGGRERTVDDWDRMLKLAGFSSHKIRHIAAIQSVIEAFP
# Experiment: UPLC product quantification, Michaelis-Menten fit
# Format: biochemical
# Details: 200 μM SAM, 30 min
# Description: UPLC product quantification, Michaelis-Menten fit on CyOMT2
Compound,"Km (50 mM phosphate pH 7.5, 45°C)","Km (50 mM phosphate pH 7.0, 40°C)"
"Oc1ccc(C[C@@H]2NCCc3cc(O)c(O)cc32)cc1 [compound 1, norcoclaurine]",19.4 ± 3.39 µM,–
"COc1cc2c(cc1O)CC[n+]1cc3c(OC)c(OC)ccc3cc1-2 [compound 14, jatrorrhizine]",–,34.8 ± 3.7 µM
"COc1cc2c(cc1O)[C@@H]1Cc3ccc(OC)c(O)c3CN1CC2 [compound 15, scoulerine]",–,12.2 ± 1.72 µM
